# Earlier results, collected in patent US20120149711A1, “PIPERIDINE DERIVATIVES USED AS OREXIN ANTAGONISTS” (Glaxo Group Limited, priority 2009, published 2012).
# No end group written: not given here.
# System: freely-feeding rats
# Conditions: central administration, 4 hour time period
substance,measurement,value
"orexin-A: ligand for the orexin-1 receptor; an agonist of the orexin receptors (QPLPDCCRQKTCSCRLYELLHGAGNHAAGILTL; ends and bridges not checked; cysteine pairing not given here; UniProt O43612 34-66, looked up)",increase of food intake over control rats receiving vehicle,approximately four-fold
